These results are taken from patent US11096924B2, “Combination therapies using immuno-dash inhibitors and PGE2 antagonists” (Trustees of Tufts College, priority 2016, dated 2021).

Where two headings read alike, the source gives them in different places.

The conditions of series [1]: phase I trial of talabostat and rituximab in rituximab-resistant lymphoma; cited from earlier work.
Series [2] concerns macrophages. The series is described as follows: Pyroptosis of macrophages in cell culture. The class given is cell-based. To be noted: Macrophage; Example 2 table; unit inferred.
Series [3] has as its system RAW 264.7 WT cells. As to the kind of experiment: Pyroptosis in RAW 264.7 WT cells. To be noted: Mus musculus, RAW264.7. The class given is cell-based.
Series [4] relates to MB49 murine urothelial carcinoma cell line. As to the kind of experiment: MB49 efficacy studies in tumor bearing mice. The class given is in vivo.
Series [5] concerns THP-1 sgGFP. The series is described as follows: Pyroptosis in THP-1 sgGFP cells. The class given is cell-based. To be noted: Homo sapiens.
The nature of series [6]: Maximum tolerated dose study (single dose) in Sprague Dawley rats. To be noted: SD rats, based on serum drug levels, with Pyrrophenone or AACOCF3. The class given is in vivo. From the text: Bars show the MTD single dose in SD rats prior to seeing animal death. […] See also FIG. 17 for a similar comparison using cPLA2 inhibitors instead of COX inhibitors.
Bars show the MTD single dose in SD rats prior to seeing animal death. Based on serum drug levels, the addition of a cPLA2 inhibitor to the I-DASH inhibitor increases that MTD dose by at least 20-fold.
Bars show the MTD single dose in SD rats prior to seeing animal death.

Series [7] deals with MV4; 11 Luc-Neo. The series is described as follows: Pyroptosis in MV4;11 Luc-Neo cells. The class given is cell-based. To be noted: Homo sapiens.
The subject of series [8] is G-CSF.

As usually defined, the IC50 is the concentration that inhibits the measured activity by half. High values mean a need for much substance, low ones inhibition by little substance.

For the compound `CC(C)[C@H](N)C(=O)N1CCC[C@H]1B(O)O` [Val-boroPro, Valine-boroProline], the partial response in series [1] was 3 patients. In addition, the IC50 came out at 0.049 µM in series [2], 0.098 µM in series [3], 0.168 µM in series [5] and 0.06 µM in series [7]. The “tumor regression in combination with celecoxib” value in series [4] (20 microgram dose of Val-boroPro plus celecoxib, individual animal curves) is given as “facilitated the achievement of tumor regression”. In addition, the “antitumor activity in combination with celecoxib” value in series [4] (Val-boroPro plus celecoxib, tumor volumes over time) was “increased the antitumor activity of Val-boroPro markedly (statistically significantly) and in a dose-dependent manner”. The “increase of MTD dose on addition of a cPLA2 inhibitor” value in series [6] is recorded as “at least 20 fold”. Besides, the “Average [G-CSF] at 6 hrs” value in series [8] (20 μg/animal PO) was found to be 55000 pg/mL; in series [8] (20 μg/animal SC) it was 97000 pg/mL.
